Measurements as given in patent US11000033B2, “Ketone or oxime compound, and herbicide” (NISSAN CHEMICAL CORPORATION, priority 2014, dated 2021).

Key:
Type in all cases: in vivo
[1] = system: Scirpus juncoides; assay: Test Example 1: herbicidal activity, application before weed generation in submerged conditions (symbol B); conditions: application herbicide amount 320 g/ha
Outline: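 Compound emulsion was diluted to a set herbicide amount and applied to the water surface on the sowing day, into submerged (4 cm) alluvial-soil pots sown with mixed weed seeds and transplanted 2.5-leaf rice. Pots were held in a 25–30 °C greenhouse, and weeds were scored 0–5 by herbicidal ratio after 3 weeks.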

[2] = system: Echinochloa oryzacola Vasing.; assay: Test Example 2: herbicidal activity, application during weed generation in submerged conditions (symbol A); conditions: Table 23; application herbicide amount 320 g/ha; grade 0-5 by criteria of Test Example 1
Outline: (§1)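 Seeds sown in flooded alluvial soil (4 cm water) were grown in a 25-30° C greenhouse. At the one- to two-leaf stage, diluted emulsion of compound was applied to the water surface at a predetermined rate. Effect was scored 3 weeks later.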

[3] = system: Scirpus juncoides; assay: Test Example 2: herbicidal activity, application during weed generation in submerged conditions (symbol B); conditions: Table 23; application herbicide amount 320 g/ha; grade 0-5 by criteria of Test Example 1
Outline: as §1

[4] = system: Echinochloa crus-galli var. crus-galli; assay: Test Example 3: herbicidal effect by foliage application, Wagner pot (symbol H); conditions: application herbicide amount 320 g/ha; for H (Echinochloa crus-galli var. crus-galli) herbicidal effect grade: Table 24
Outline: (§2)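 Plants sown in submerged alluvial soil (water depth 0.1–0.5 cm) in a 25–30 °C greenhouse and grown 14 days. An emulsion of the compound diluted in water to a set herbicide amount was sprayed uniformly on foliage. Effect on each plant scored 3 weeks after application.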

[5] = system: Cyperus difformis; assay: Test Example 3: herbicidal effect by foliage application, Wagner pot (symbol E); conditions: application herbicide amount 320 g/ha; for E herbicidal effect grade: Table 24
Outline: as §2

[6] = system: Setaria viridis; assay: Test Example 4: herbicidal effect by soil treatment (symbol G)
Outline: (§3)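 Seeds were sown in sterilized diluvial soil, covered with about 1.5 cm of soil, and the soil surface was sprayed with a water-diluted emulsion of the compound at a predetermined rate. Plants grew in a greenhouse at 25° C. to 30° C.; effects were scored visually 3 weeks after application.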

[7] = system: Avena fatua; assay: Test Example 4: herbicidal effect by soil treatment (symbol I)
Outline: as §3

[8] = system: Alopecurus myosuroides; assay: Test Example 4: herbicidal effect by soil treatment (symbol J)
Outline: as §3

[9] = system: Abutilon theophrasti; assay: Test Example 4: herbicidal effect by soil treatment (symbol M)
Outline: as §3

[10] = system: Chenopodium album; assay: Test Example 4: herbicidal effect by soil treatment (symbol O)
Outline: as §3

[11] = system: Veronica persica; assay: Test Example 4: herbicidal effect by soil treatment (symbol R)
Outline: as §3

[12] = system: Alopecurus myosuroides; assay: Test Example 5: herbicidal effect by foliage application, plastic box (symbol J); conditions: 320 g/ha, 3 weeks after application
Outline: (§4)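 Visual herbicidal score, taken three weeks post-application, of seedlings sprayed on the foliage with water-diluted emulsion at a predetermined amount; plants were 14 days old, greenhouse-raised at 25° C. to 30° C.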

[13] = system: Apera spica-venti; assay: Test Example 5: herbicidal effect by foliage application, plastic box (symbol L); conditions: 320 g/ha, 3 weeks after application
Outline: as §4

[14] = system: corn; assay: Test Example 5: effect on crop by foliage application, plastic box (symbol c); conditions: 320 g/ha, 3 weeks after application
Outline: (§5)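 Crop and weed seeds sown in spots in sterilized diluvial soil in plastic boxes and covered with about 1.5 cm soil. Plants raised in a greenhouse at 25° C. to 30° C. for foliar application.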

[15] = system: rapeseed; assay: Test Example 5: effect on crop by foliage application, plastic box (symbol g); conditions: 320 g/ha, 3 weeks after application
Outline: as §5

[16] = application herbicide amount 320 g/ha

| Compound | B (Scirpus juncoides) herbicidal effect grade [1] | Herbicidal effect grade, A: Echinochloa oryzacola Vasing. [2] | Herbicidal effect grade, B: Scirpus juncoides [3] | H (Echinochloa crus-galli var. crus-galli) herbicidal effect grade [4] | E herbicidal effect grade [5] | G: Setaria viridis, herbicidal effect grade [6, 16] | I: Avena fatua, herbicidal effect grade [7, 16] | J: Alopecurus myosuroides, herbicidal effect grade [8, 16] | Herbicidal effect grade, B: Scirpus juncoides [1] | herbicidal effect on H (Echinochloa crus-galli var. crus-galli), grade 0-5 [4] | G: Setaria viridis, herbicidal effect grade ([6]; 320 g/ha) | I: Avena fatua, herbicidal effect grade ([7]; 320 g/ha) | J: Alopecurus myosuroides, herbicidal effect grade ([8]; 320 g/ha) | M: Abutilon theophrasti, herbicidal effect grade ([9]; 320 g/ha) | O: Chenopodium album, herbicidal effect grade ([10]; 320 g/ha) | R: Veronica persica, herbicidal effect grade ([11]; 320 g/ha) | J: Alopecurus myosuroides, herbicidal effect (criteria 0-5) [12] | L: Apera spica-venti, herbicidal effect (criteria 0-5) [13] | c: corn, effect on crop (criteria 0-5) [14] | g: rapeseed, effect on crop (criteria 0-5) [15] | further results |
| --- | --- | --- | --- | --- | --- | --- | --- | --- | --- | --- | --- | --- | --- | --- | --- | --- | --- | --- | --- | --- | --- |
| CCC(CC1CC(O)=C(c2c(C)cc(C)cc2OC)C1=O)=NOC (mixture of isomers) [13-003] | 5 (Herbicidal ratio of 90% or more (almost completely withered)) | 5 (Herbicidal ratio of 90% or more (almost completely withered)) | 4 (Herbicidal ratio of 70% or higher and lower than 90%) | 5 (Herbicidal ratio of 90% or more (almost completely withered)) | 5 (Herbicidal ratio of 90% or more (almost completely withered)) | 5 (Herbicidal ratio of 90% or more (almost completely withered)) | 1 (Herbicidal ratio of 5% or higher and lower than 20%) | 5 (Herbicidal ratio of 90% or more (almost completely withered)) | – | – | – | – | – | – | – | – | – | – | – | – | M: Abutilon theophrasti, herbicidal effect grade [9, 16]: 4 (Herbicidal ratio of 70% or higher and lower than 90%); O: Chenopodium album, herbicidal effect grade [10, 16]: 0 (Herbicidal ratio of 5% or lower (almost no effect)); R: Veronica persica, herbicidal effect grade [11, 16]: 0 (Herbicidal ratio of 5% or lower (almost no effect)); J: Alopecurus myosuroides, herbicidal effect grade [12]: 5 (Herbicidal ratio of 90% or more (almost completely withered)); L: Apera spica-venti, herbicidal effect grade [13]: 5 (Herbicidal ratio of 90% or more (almost completely withered)); c: corn, effect on crop grade [14]: 5 (Herbicidal ratio of 90% or more (almost completely withered)); g: rapeseed, effect on crop grade [15]: 4 (Herbicidal ratio of 70% or higher and lower than 90%) |
| CC(CC1CC(O)=C(c2c(C)cc(C)cc2C)C1=O)=NOCC(C)Br (centres unmarked) [1-135] | – | 5 (Herbicidal ratio of 90% or more (almost completely withered)) | 4 (Herbicidal ratio of 70% or higher and lower than 90%) | – | – | – | – | – | 5 (Herbicidal ratio of 90% or more (almost completely withered)) | 5 (Herbicidal ratio of 90% or more (almost completely withered)) | 5 (Herbicidal ratio of 90% or more (almost completely withered)) | 3 (Herbicidal ratio of 40% or higher and lower than 70%) | 5 (Herbicidal ratio of 90% or more (almost completely withered)) | 0 (Herbicidal ratio of 5% or lower (almost no effect)) | 0 (Herbicidal ratio of 5% or lower (almost no effect)) | 2 (Herbicidal ratio of 20% or higher and lower than 40%) | 5 (Herbicidal ratio of 90% or more (almost completely withered)) | 5 (Herbicidal ratio of 90% or more (almost completely withered)) | 4 (Herbicidal ratio of 70% or higher and lower than 90%) | 4 (Herbicidal ratio of 70% or higher and lower than 90%) | – |
| CON=C(C)CC1CC(OC(=O)CSc2ccccc2)=C(c2c(C)cc(C)cc2C)C1=O (centres unmarked) [1-134] | – | 5 (Herbicidal ratio of 90% or more (almost completely withered)) | 4 (Herbicidal ratio of 70% or higher and lower than 90%) | – | – | – | – | – | 5 (Herbicidal ratio of 90% or more (almost completely withered)) | 5 (Herbicidal ratio of 90% or more (almost completely withered)) | 5 (Herbicidal ratio of 90% or more (almost completely withered)) | 2 (Herbicidal ratio of 20% or higher and lower than 40%) | 5 (Herbicidal ratio of 90% or more (almost completely withered)) | 3 (Herbicidal ratio of 40% or higher and lower than 70%) | 0 (Herbicidal ratio of 5% or lower (almost no effect)) | 0 (Herbicidal ratio of 5% or lower (almost no effect)) | 5 (Herbicidal ratio of 90% or more (almost completely withered)) | 5 (Herbicidal ratio of 90% or more (almost completely withered)) | 5 (Herbicidal ratio of 90% or more (almost completely withered)) | 4 (Herbicidal ratio of 70% or higher and lower than 90%) | herbicidal effect on E, grade 0-5 [5]: 5 (Herbicidal ratio of 90% or more (almost completely withered)) |
| CON=C(CC1CC(OC(=O)N2CCOCC2)=C(c2c(C)cc(C)cc2OC)C1=O)C1CC1 (mixture of isomers) [13-005] | 0 (Herbicidal ratio of 5% or lower (almost no effect)) | 5 (Herbicidal ratio of 90% or more (almost completely withered)) | 2 (Herbicidal ratio of 20% or higher and lower than 40%) | 5 (Herbicidal ratio of 90% or more (almost completely withered)) | 5 (Herbicidal ratio of 90% or more (almost completely withered)) | 0 (Herbicidal ratio of 5% or lower (almost no effect)) | 0 (Herbicidal ratio of 5% or lower (almost no effect)) | 4 (Herbicidal ratio of 70% or higher and lower than 90%) | – | – | – | – | – | – | – | – | – | – | – | – | M: Abutilon theophrasti, herbicidal effect grade [9, 16]: 0 (Herbicidal ratio of 5% or lower (almost no effect)); O: Chenopodium album, herbicidal effect grade [10, 16]: 0 (Herbicidal ratio of 5% or lower (almost no effect)); R: Veronica persica, herbicidal effect grade [11, 16]: 0 (Herbicidal ratio of 5% or lower (almost no effect)); J: Alopecurus myosuroides, herbicidal effect grade [12]: 5 (Herbicidal ratio of 90% or more (almost completely withered)); L: Apera spica-venti, herbicidal effect grade [13]: 5 (Herbicidal ratio of 90% or more (almost completely withered)); c: corn, effect on crop grade [14]: 4 (Herbicidal ratio of 70% or higher and lower than 90%); g: rapeseed, effect on crop grade [15]: 3 (Herbicidal ratio of 40% or higher and lower than 70%) |
| CON=C(CC1CC(O)=C(c2c(C)cc(C)cc2C)C1=O)c1ccc(F)cc1 (centres unmarked) [1-133] | – | 1 (Herbicidal ratio of 5% or higher and lower than 20%) | 0 (Herbicidal ratio of 5% or lower (almost no effect)) | – | – | – | – | – | 0 (Herbicidal ratio of 5% or lower (almost no effect)) | 3 (Herbicidal ratio of 40% or higher and lower than 70%) | 4 (Herbicidal ratio of 70% or higher and lower than 90%) | 0 (Herbicidal ratio of 5% or lower (almost no effect)) | 5 (Herbicidal ratio of 90% or more (almost completely withered)) | 0 (Herbicidal ratio of 5% or lower (almost no effect)) | 0 (Herbicidal ratio of 5% or lower (almost no effect)) | 0 (Herbicidal ratio of 5% or lower (almost no effect)) | 4 (Herbicidal ratio of 70% or higher and lower than 90%) | 2 (Herbicidal ratio of 20% or higher and lower than 40%) | 0 (Herbicidal ratio of 5% or lower (almost no effect)) | 4 (Herbicidal ratio of 70% or higher and lower than 90%) | herbicidal effect on E, grade 0-5 [5]: 0 (Herbicidal ratio of 5% or lower (almost no effect)) |
